Test results as given in ChEMBL document CHEMBL4507268 (2021).

Key:
Settings in all cases: Compound concentration 1.0 uM
[1] = target: T1, Dual specificity mitogen-activated protein kinase kinase 3 (Homo sapiens) (UniProt P46734)
T1 sequence (whole entry): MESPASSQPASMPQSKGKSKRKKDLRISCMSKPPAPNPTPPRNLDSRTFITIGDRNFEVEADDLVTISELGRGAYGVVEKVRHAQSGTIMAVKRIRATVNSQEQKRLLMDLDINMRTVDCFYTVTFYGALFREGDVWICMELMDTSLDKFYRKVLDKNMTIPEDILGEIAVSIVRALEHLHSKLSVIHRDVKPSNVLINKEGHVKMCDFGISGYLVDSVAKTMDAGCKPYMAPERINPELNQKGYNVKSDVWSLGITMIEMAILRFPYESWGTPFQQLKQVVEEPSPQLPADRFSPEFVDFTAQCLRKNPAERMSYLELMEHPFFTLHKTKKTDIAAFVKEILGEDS

[2] = target: T2, cAMP-dependent protein kinase catalytic subunit PRKX (Homo sapiens) (UniProt P51817)
T2 sequence (whole entry): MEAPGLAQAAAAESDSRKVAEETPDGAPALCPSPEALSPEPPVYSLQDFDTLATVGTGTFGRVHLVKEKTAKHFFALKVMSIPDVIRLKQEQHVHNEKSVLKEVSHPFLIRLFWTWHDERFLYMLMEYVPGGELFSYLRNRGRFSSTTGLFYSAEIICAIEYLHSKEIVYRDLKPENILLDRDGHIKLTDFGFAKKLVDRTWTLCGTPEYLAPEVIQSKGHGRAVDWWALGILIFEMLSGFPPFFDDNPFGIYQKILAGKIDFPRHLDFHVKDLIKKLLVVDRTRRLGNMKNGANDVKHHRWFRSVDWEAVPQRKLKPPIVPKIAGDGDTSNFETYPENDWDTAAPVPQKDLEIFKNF

[3] = target: Cyclin-dependent kinase 2/cyclin E (Homo sapiens) (UniProt P24864+P24941+O96020)
[4] = target: Ribosomal protein S6 kinase alpha-3 (Homo sapiens) (UniProt P51812)
[5] = target: T3, Dual specificity mitogen-activated protein kinase kinase 7 (Homo sapiens) (UniProt O14733)
T3 sequence (whole entry): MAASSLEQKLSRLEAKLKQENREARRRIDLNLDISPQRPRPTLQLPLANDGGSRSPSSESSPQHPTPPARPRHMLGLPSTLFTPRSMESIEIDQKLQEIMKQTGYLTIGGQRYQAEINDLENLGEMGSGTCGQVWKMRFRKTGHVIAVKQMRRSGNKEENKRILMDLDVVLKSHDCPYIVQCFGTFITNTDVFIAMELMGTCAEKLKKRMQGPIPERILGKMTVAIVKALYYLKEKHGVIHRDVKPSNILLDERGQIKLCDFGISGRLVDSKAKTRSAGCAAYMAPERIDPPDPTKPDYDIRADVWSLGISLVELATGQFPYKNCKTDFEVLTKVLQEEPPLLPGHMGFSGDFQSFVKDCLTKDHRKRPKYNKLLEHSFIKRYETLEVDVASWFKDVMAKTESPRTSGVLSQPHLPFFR

[6] = target: T4, Serine/threonine-protein kinase Sgk2 (Homo sapiens) (UniProt Q9HBY8)
T4 sequence (whole entry): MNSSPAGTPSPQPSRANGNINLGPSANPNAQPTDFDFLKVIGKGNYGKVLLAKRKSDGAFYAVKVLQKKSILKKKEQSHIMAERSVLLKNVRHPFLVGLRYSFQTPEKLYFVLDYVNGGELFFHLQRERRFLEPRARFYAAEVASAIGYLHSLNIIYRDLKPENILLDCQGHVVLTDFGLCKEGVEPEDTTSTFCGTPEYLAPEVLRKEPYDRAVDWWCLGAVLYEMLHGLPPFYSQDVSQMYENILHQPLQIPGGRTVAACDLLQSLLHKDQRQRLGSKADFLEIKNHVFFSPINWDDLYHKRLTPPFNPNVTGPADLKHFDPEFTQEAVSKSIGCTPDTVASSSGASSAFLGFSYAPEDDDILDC

[7] = target: T5, Ephrin type-B receptor 3 (Homo sapiens) (UniProt P54753)
T5 sequence (whole entry): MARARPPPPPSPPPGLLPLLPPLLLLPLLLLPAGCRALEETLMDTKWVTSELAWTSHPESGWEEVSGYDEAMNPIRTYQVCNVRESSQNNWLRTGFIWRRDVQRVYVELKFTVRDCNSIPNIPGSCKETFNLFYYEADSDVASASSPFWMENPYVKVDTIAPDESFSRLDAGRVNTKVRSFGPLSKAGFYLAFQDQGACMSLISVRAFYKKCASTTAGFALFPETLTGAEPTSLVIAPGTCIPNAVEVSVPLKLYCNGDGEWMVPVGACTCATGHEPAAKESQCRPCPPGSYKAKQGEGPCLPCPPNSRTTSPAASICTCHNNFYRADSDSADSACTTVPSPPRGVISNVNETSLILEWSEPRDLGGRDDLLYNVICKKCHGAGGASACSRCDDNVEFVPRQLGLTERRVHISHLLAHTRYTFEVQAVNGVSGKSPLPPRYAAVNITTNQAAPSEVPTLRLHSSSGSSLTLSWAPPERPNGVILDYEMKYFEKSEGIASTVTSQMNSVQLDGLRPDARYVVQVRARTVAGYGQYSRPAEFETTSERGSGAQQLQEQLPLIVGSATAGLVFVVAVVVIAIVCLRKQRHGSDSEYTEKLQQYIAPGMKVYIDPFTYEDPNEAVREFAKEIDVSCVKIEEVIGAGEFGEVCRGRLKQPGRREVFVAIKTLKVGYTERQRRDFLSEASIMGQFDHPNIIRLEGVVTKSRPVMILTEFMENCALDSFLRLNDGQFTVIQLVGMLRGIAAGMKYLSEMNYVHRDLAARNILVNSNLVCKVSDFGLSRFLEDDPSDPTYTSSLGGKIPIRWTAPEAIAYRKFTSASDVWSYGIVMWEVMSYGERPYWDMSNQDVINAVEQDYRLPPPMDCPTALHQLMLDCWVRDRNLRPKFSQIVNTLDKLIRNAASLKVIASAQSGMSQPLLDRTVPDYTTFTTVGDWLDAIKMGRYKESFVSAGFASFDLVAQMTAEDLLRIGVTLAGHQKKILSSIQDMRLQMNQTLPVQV

[8] = target: Serine/threonine-protein kinase mTOR (Homo sapiens) (UniProt P42345)
[9] = target: SRSF protein kinase 2 (Homo sapiens) (UniProt P78362)

Measured: % residual kinase activity

Chain of SRSF protein kinase 2 (Homo sapiens) (P78362 whole entry, looked up): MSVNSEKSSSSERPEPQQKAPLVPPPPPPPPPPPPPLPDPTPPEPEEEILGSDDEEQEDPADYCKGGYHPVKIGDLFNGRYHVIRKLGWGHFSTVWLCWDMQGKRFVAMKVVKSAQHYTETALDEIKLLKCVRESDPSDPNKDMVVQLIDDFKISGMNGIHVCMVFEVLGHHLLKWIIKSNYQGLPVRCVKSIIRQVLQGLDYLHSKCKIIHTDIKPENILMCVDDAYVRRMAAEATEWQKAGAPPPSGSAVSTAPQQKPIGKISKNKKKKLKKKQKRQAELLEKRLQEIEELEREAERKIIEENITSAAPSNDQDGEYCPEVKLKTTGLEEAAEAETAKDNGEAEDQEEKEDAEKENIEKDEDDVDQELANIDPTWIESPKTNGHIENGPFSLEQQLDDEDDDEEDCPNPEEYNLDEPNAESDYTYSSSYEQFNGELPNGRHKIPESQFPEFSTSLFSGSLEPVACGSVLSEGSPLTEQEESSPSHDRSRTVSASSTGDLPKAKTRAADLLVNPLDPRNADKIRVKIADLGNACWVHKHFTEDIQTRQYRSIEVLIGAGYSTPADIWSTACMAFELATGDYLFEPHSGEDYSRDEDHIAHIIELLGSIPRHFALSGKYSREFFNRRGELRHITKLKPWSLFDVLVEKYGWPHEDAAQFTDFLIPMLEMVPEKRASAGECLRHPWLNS
Chain of Ribosomal protein S6 kinase alpha-3 (Homo sapiens) (P51812 whole entry): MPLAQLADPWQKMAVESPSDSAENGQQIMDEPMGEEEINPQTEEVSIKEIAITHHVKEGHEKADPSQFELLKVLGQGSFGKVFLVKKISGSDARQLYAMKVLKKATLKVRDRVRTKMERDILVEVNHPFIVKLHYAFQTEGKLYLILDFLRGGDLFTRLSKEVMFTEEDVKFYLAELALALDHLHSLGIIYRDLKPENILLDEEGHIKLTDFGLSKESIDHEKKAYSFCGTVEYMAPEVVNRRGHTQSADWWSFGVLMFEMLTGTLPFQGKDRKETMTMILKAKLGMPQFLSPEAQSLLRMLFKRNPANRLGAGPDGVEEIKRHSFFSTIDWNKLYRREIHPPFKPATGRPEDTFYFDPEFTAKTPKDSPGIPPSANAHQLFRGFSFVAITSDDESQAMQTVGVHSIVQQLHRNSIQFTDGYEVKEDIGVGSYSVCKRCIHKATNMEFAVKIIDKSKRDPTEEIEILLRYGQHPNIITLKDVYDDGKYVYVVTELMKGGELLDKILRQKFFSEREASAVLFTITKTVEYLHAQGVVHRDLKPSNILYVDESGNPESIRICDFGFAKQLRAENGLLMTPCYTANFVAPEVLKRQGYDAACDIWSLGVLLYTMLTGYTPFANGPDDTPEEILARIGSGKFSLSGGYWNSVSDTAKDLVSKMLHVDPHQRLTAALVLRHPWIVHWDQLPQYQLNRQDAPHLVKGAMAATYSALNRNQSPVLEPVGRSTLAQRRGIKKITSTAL

CN1CCN(c2cnc3c(C4CCN(C(=O)c5ccc(OC(F)(F)F)cc5N)CC4)ncnc3c2)CC1 [BAY-885]
inactive: [1] 92% | [2] 121% | [3] 99% | [4] 109% | [5] 106% | [6] 89% | [7] 42% | [8] 104% | [9] 99%
